{
  "source": "patent US20080051466A1",
  "about": "“Isoalpha acid based protein kinase modulation cancer treatment” (Metaproteomics, LLC, priority 2006, published 2008)",
  "experiment_in_all_cases": "KinaseProfiler Assay",
  "format_in_all_cases": "biochemical",
  "key": {"CHK1": {"target": "T1, CHK1 (Homo sapiens, UniProt O14757)", "T1 sequence (O14757 1-476)": "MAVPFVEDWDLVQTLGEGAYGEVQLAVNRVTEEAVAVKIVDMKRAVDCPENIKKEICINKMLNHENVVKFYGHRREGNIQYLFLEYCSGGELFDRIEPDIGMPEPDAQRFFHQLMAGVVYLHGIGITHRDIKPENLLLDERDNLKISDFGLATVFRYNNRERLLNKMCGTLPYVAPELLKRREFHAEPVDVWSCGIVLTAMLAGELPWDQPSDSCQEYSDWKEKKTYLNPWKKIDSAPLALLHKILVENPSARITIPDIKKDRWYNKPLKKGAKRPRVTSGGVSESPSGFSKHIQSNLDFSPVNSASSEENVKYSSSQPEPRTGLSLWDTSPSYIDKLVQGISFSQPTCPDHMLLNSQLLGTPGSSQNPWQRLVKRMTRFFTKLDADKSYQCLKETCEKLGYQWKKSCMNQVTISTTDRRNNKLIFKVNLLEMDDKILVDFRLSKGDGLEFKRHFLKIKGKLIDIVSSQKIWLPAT", "conditions": "read-out: CHK1, % of Control"}, "TrkB": {"target": "TrkB (Homo sapiens, UniProt Q16620)", "sequence (Q16620 32-822)": "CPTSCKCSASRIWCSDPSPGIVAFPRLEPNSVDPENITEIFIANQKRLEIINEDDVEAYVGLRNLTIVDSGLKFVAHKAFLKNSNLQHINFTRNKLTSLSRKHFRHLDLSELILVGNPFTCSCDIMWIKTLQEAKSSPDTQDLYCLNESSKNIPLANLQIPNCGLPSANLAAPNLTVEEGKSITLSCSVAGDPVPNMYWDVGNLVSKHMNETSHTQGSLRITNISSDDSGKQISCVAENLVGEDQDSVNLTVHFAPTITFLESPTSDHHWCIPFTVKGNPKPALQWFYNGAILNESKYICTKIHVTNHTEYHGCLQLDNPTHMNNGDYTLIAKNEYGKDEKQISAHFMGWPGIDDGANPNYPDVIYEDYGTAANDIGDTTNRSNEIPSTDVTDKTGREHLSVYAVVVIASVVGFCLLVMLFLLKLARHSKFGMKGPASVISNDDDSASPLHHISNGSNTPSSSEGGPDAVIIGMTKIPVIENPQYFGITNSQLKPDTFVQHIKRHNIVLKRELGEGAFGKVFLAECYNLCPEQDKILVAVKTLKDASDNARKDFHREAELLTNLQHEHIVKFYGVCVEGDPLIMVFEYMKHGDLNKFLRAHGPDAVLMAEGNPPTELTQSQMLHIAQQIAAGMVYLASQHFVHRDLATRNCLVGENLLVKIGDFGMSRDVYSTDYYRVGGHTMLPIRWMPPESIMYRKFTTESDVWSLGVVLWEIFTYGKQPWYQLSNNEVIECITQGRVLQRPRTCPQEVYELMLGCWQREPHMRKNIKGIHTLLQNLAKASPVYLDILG", "conditions": "read-out: TrkB, % of Control"}, "JAK3": {"target": "T2, JAK3 (Homo sapiens, UniProt P52333)", "T2 sequence (P52333 1-1124)": "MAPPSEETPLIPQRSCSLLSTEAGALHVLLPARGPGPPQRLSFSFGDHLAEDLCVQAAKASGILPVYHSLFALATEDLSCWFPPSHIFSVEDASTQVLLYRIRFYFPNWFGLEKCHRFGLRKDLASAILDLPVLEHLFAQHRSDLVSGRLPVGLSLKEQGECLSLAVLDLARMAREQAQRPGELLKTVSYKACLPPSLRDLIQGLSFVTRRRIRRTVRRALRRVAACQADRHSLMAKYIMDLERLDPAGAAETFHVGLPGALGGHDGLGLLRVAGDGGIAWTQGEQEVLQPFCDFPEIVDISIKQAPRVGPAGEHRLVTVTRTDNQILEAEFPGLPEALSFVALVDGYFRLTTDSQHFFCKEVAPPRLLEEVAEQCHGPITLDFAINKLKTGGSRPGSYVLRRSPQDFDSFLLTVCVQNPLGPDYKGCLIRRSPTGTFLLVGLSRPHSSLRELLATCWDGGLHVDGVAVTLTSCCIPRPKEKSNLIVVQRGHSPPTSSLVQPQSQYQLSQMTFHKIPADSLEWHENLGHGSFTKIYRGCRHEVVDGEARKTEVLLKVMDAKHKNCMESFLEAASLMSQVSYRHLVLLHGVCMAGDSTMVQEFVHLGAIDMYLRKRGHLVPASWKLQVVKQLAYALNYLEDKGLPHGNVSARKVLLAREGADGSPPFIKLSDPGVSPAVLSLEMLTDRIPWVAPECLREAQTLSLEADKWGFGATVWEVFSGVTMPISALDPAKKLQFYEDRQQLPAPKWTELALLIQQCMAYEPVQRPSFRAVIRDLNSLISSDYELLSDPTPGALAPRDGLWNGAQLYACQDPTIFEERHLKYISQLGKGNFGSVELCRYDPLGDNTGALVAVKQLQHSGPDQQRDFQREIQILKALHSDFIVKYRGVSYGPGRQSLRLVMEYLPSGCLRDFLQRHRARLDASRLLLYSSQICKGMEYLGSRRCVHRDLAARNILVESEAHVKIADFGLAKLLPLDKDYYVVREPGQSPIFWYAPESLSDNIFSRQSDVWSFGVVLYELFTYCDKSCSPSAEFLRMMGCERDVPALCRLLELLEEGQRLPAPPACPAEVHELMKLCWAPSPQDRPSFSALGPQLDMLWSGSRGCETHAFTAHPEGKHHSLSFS", "conditions": "read-out: JAK3, % of Control"}, "EphA2": {"target": "EphA2 (Homo sapiens, UniProt P29317)", "conditions": "read-out: EphA2, % of Control"}, "MSSK1": {"target": "MSSK1 (Homo sapiens, UniProt Q9UPE1)", "sequence (Q9UPE1 whole entry)": "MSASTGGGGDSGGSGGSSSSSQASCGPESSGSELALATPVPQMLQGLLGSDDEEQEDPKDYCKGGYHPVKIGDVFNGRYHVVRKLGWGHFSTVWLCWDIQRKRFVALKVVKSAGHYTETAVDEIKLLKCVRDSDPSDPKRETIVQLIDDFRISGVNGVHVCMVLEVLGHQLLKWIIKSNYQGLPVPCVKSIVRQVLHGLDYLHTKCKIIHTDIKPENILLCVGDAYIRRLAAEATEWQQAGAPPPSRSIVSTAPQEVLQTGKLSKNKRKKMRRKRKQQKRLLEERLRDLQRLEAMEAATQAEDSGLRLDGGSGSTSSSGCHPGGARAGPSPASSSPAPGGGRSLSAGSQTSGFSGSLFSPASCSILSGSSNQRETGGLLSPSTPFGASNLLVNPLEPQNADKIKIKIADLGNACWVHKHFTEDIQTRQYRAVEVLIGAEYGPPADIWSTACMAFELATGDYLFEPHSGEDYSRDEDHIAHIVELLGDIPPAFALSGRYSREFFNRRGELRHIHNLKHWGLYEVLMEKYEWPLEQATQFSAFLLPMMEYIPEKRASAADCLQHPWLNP", "conditions": "read-out: MSSK1, % of Control"}, "Fer": {"target": "Fer (Homo sapiens, UniProt P16591)", "sequence (P16591 whole entry)": "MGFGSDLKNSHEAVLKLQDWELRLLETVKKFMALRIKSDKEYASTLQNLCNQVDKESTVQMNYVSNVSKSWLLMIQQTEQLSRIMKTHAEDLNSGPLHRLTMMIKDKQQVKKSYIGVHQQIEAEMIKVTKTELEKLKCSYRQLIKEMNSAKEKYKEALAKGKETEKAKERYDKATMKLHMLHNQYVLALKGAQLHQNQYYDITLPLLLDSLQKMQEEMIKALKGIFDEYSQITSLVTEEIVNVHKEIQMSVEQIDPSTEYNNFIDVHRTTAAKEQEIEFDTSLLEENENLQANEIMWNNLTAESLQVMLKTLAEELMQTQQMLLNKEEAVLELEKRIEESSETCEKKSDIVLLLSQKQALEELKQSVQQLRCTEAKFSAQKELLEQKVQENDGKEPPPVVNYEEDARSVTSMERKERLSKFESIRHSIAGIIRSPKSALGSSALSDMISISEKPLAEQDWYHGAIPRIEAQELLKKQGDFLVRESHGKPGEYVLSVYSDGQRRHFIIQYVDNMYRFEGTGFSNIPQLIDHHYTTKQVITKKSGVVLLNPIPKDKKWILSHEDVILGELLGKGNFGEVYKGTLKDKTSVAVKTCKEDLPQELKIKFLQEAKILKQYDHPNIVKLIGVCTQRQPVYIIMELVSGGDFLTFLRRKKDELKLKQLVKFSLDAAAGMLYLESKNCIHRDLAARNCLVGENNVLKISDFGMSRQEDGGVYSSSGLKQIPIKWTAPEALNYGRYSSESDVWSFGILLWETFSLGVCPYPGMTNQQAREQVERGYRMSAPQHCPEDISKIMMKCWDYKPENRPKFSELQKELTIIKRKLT", "conditions": "read-out: Fer, % of Control"}, "CDK1/cyclinB": {"target": "CDK1/cyclinB (Homo sapiens, UniProt P06493)", "sequence (P06493 whole entry)": "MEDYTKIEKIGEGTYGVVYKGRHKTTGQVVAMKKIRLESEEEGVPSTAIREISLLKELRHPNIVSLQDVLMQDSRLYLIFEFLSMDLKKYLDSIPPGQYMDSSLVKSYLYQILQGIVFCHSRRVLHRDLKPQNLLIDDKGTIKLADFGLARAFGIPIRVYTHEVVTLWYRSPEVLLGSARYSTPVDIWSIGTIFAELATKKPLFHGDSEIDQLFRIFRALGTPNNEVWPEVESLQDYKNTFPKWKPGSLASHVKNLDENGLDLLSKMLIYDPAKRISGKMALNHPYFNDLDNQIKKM", "sequence (P14635 whole entry partner)": "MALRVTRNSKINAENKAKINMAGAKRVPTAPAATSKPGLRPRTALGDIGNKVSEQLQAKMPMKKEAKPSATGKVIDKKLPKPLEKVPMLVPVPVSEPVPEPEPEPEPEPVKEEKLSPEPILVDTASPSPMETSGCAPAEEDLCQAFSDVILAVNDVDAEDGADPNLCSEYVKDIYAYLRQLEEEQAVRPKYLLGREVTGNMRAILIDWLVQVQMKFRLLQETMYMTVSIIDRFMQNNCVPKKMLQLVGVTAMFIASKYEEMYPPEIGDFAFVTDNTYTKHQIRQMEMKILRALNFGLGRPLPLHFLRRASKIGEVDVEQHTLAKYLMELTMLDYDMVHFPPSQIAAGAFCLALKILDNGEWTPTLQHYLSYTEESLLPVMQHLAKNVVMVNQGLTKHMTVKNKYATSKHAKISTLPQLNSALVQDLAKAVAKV", "conditions": "read-out: CDK1/cyclinB, % of Control"}, "MAPKAP-K3": {"target": "MAPKAP-K3 (Homo sapiens, UniProt Q16644)", "sequence (Q16644 whole entry)": "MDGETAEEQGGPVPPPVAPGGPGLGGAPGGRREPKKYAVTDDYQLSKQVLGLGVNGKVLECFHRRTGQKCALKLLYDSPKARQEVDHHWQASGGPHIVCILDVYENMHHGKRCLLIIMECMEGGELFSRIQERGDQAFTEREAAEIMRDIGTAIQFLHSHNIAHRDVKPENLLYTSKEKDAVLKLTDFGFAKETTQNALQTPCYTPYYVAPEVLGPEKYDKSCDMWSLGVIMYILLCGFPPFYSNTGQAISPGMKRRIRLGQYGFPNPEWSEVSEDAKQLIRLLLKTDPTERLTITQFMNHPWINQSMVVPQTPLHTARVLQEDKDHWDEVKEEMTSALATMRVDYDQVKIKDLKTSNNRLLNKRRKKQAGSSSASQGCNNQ", "conditions": "read-out: MAPKAP-K3, % of Control"}, "DAPK2": {"target": "DAPK2 (Homo sapiens, UniProt Q9UIK4)", "sequence (Q9UIK4 whole entry)": "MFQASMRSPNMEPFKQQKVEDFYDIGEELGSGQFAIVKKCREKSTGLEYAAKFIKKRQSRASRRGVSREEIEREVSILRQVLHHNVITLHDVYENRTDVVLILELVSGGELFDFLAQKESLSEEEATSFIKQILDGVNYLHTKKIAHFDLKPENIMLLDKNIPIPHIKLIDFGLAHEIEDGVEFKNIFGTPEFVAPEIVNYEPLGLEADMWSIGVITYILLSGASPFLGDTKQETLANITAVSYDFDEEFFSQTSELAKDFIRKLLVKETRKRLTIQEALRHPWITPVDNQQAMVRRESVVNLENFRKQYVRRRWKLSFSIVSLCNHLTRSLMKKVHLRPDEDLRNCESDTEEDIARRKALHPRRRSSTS", "conditions": "read-out: DAPK2, % of Control"}, "CDK9/cyclin T1": {"target": "CDK9/cyclin T1 (Homo sapiens, UniProt P50750)", "sequence (P50750 whole entry)": "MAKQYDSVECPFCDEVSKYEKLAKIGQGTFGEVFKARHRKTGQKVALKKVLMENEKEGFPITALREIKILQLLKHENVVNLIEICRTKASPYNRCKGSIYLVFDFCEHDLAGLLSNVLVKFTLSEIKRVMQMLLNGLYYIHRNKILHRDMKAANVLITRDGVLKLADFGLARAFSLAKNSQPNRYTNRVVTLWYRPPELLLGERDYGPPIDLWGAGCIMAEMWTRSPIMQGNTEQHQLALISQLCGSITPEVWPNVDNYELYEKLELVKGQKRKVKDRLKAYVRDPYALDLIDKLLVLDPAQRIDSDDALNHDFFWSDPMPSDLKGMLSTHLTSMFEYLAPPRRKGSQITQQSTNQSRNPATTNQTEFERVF", "sequence (O60563 whole entry partner)": "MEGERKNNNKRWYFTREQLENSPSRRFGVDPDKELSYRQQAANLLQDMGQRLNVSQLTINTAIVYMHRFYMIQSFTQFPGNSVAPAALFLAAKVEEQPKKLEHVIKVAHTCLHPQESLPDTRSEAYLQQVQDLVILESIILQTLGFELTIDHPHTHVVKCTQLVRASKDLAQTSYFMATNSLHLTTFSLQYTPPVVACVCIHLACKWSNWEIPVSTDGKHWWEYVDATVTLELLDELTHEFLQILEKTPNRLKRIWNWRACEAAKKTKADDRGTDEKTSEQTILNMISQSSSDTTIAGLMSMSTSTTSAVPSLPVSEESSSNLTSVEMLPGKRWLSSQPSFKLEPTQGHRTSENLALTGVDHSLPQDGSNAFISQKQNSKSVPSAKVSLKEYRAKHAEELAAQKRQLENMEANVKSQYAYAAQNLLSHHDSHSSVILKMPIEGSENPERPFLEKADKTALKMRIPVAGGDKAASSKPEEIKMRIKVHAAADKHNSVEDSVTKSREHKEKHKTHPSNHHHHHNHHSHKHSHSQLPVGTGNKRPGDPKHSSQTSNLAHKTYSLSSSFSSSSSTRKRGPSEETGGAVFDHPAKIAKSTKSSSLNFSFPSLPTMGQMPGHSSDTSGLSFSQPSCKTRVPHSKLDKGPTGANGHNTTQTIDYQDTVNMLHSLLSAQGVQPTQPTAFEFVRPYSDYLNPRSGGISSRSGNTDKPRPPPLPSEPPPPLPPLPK", "conditions": "read-out: CDK9/cyclin T1, % of Control"}},
  "data": [
    {"smiles": "COc1cc(O)c(CC=C(C)C)c(O)c1C(=O)/C=C/c1ccc(O)cc1", "note": "[Xanthohumol, xanthohumol]", "values": [
      {"measurement": "remaining activity at 1 µg/mL", "setting": "CHK1; 1 ug/ml", "value": 121, "unit": "%"},
      {"measurement": "remaining activity at 5 µg/mL", "setting": "CHK1; 5 ug/ml", "value": 126, "unit": "%"},
      {"measurement": "remaining activity at 25 µg/mL", "setting": "CHK1; 25 ug/ml", "value": 142, "unit": "%"},
      {"measurement": "remaining activity at 50 µg/mL", "setting": "CHK1; 50 ug/ml", "value": 149, "unit": "%"},
      {"measurement": "remaining activity at 1 µg/mL", "setting": "TrkB; 1 ug/ml", "value": 95, "unit": "%"},
      {"measurement": "remaining activity at 5 µg/mL", "setting": "TrkB; 5 ug/ml", "value": 89, "unit": "%"},
      {"measurement": "remaining activity at 25 µg/mL", "setting": "TrkB; 25 ug/ml", "value": 58, "unit": "%"},
      {"measurement": "remaining activity at 50 µg/mL", "setting": "TrkB; 50 ug/ml", "value": 3, "unit": "%"},
      {"measurement": "remaining activity at 1 µg/mL", "setting": "JAK3; 1 ug/ml", "value": 104, "unit": "%"},
      {"measurement": "remaining activity at 5 µg/mL", "setting": "JAK3; 5 ug/ml", "value": 84, "unit": "%"},
      {"measurement": "remaining activity at 25 µg/mL", "setting": "JAK3; 25 ug/ml", "value": 17, "unit": "%"},
      {"measurement": "remaining activity at 50 µg/mL", "setting": "JAK3; 50 ug/ml", "value": 5, "unit": "%"},
      {"measurement": "remaining activity at 1 µg/mL", "setting": "EphA2; 1 ug/ml", "value": 124, "unit": "%"},
      {"measurement": "remaining activity at 50 µg/mL", "setting": "EphA2; 50 ug/ml", "value": 52, "unit": "%"},
      {"measurement": "remaining activity at 1 µg/mL", "setting": "MSSK1; 1 ug/ml", "value": 47, "unit": "%"},
      {"measurement": "remaining activity at 5 µg/mL", "setting": "MSSK1; 5 ug/ml", "value": 11, "unit": "%"},
      {"measurement": "remaining activity at 25 µg/mL", "setting": "MSSK1; 25 ug/ml", "value": 7, "unit": "%"},
      {"measurement": "remaining activity at 50 µg/mL", "setting": "MSSK1; 50 ug/ml", "value": 5, "unit": "%"},
      {"measurement": "remaining activity at 1 µg/mL", "setting": "Fer; 1 ug/ml", "value": 55, "unit": "%"},
      {"measurement": "remaining activity at 5 µg/mL", "setting": "Fer; 5 ug/ml", "value": 20, "unit": "%"},
      {"measurement": "remaining activity at 25 µg/mL", "setting": "Fer; 25 ug/ml", "value": 10, "unit": "%"},
      {"measurement": "remaining activity at 50 µg/mL", "setting": "Fer; 50 ug/ml", "value": 1, "unit": "%"},
      {"measurement": "remaining activity at 1 µg/mL", "setting": "CDK1/cyclinB; 1 ug/ml", "value": 118, "unit": "%"},
      {"measurement": "remaining activity at 5 µg/mL", "setting": "CDK1/cyclinB; 5 ug/ml", "value": 103, "unit": "%"},
      {"measurement": "remaining activity at 25 µg/mL", "setting": "CDK1/cyclinB; 25 ug/ml", "value": 46, "unit": "%"},
      {"measurement": "remaining activity at 50 µg/mL", "setting": "CDK1/cyclinB; 50 ug/ml", "value": 18, "unit": "%"},
      {"measurement": "remaining activity at 25 µg/mL", "setting": "MAPKAP-K3; 25 ug/ml", "value": 17, "unit": "%"},
      {"measurement": "remaining activity at 50 µg/mL", "setting": "MAPKAP-K3; 50 ug/ml", "value": 7, "unit": "%"},
      {"measurement": "remaining activity at 1 µg/mL", "setting": "DAPK2; 1 ug/ml", "value": 105, "unit": "%"},
      {"measurement": "remaining activity at 5 µg/mL", "setting": "DAPK2; 5 ug/ml", "value": 88, "unit": "%"},
      {"measurement": "remaining activity at 25 µg/mL", "setting": "DAPK2; 25 ug/ml", "value": 45, "unit": "%"},
      {"measurement": "remaining activity at 50 µg/mL", "setting": "DAPK2; 50 ug/ml", "value": 26, "unit": "%"},
      {"measurement": "remaining activity at 1 µg/mL", "setting": "CDK9/cyclin T1; 1 ug/ml", "value": 110, "unit": "%"},
      {"measurement": "remaining activity at 5 µg/mL", "setting": "CDK9/cyclin T1; 5 ug/ml", "value": 107, "unit": "%"},
      {"measurement": "remaining activity at 25 µg/mL", "setting": "CDK9/cyclin T1; 25 ug/ml", "value": 45, "unit": "%"},
      {"measurement": "remaining activity at 50 µg/mL", "setting": "CDK9/cyclin T1; 50 ug/ml", "value": 31, "unit": "%"}
    ]}
  ]
}
